Publication PMC8287944, “5-Fluorouracil blocks quorum-sensing of biofilm-embedded methicillin-resistant Staphylococcus aureus in mice” (Nucleic Acids Research, 2021)

Tests used:
MRSA ATCC 43300 [1] = assay: Murine tissue cage (foreign-body) infection model, prophylaxis; assay type: in vivo, Staphylococcus aureus; conditions: C57BL/6 mice; for Effect on biofilm / adherent MRSA / Effect on planktonic MRSA infection: prophylactic treatment; for Effect on biofilm / adherent MRSA: explanted cages 2 days post-infection; for Effect on planktonic MRSA infection: tissue cage fluid 2 days post-infection
Protocol: To evaluate the prophylactic efficacy of 5-FU against MRSA infection, we used our murine model of foreign-body infection, which closely mimics human implant-associated infections. This model of foreign-body infection ([26],[27]) was established with the approval of the Kantonale Veterinaeramt Basel-Stadt, Switzerland (permit no. 1710). Experiments were conducted according to the regulations of Swiss veterinary law and performed in the animal house of the Department of Biomedicine, University Hospital Basel, Switzerland. Healthy wild-type female C57BL/6 mice at 13 weeks of age (JanvierLabs, France) kept under specific pathogen-free conditions (biosafety level 2) were anesthetized, followed by the subcutaneous implantation of sterile cylindrical Teflon tissue cages (8.5 × 1 × 30 mm; volume: 1.9 ml) with 130 regularly spaced holes (Angst + Pfister AG, Zurich, Switzerland). They were housed in a 12 hr light/dark cycle (light from 7 am to 7 pm) in a temperature-controlled room (24°C) with free access to regular mice chow and water. Mice were randomly assigned to experimental groups, which were not involved in previous procedures. The mice were randomized into groups, which were treated as follows: saline (untreated growth control; n = 7), saline with 5.2844 mg/kg DPD (n = 4), 50 mg/kg daptomycin (DAP) (Novartis, Basel, Switzerland) (n = 11), 10 mg/kg 5-FU with and without 50 mg/kg DAP (each n = 8), 40 mg/kg 5-FU with or without 50 mg/kg DAP (n = 16 and n = 13, respectively), 40 mg/kg 5-FU with 1 μM DPD (n = 6), or 40 mg/kg 5-FU with 50 mg/kg DAP and 5.2844 mg/kg DPD (n = 8). DAP was given intraperitoneally immediately before implantation, and 5-FU and DPD was given immediately after implantation directly into the lumen of the cage. Afterwards, the cages were infected with 965 CFU of MRSA 43300. At 2 days post-infection, tissue cage fluid was collected, and the planktonic bacterial load was evaluated by plating on blood agar plates. In additional, mice were sacrificed and the tissue cages were explanted under aseptic conditions. The explanted tissue cages were washed twice with phosphate-buffered saline followed by 30 s vortexing, sonication for 3 min at 130 W and another 30 s vortexing to release adherent bacteria from the biofilm. Quantification of adherent bacteria was performed by plating appropriated dilutions on blood agar plates. To determine the prevention rate, the presence of any re-growth of MRSA was examined by further incubation of the cage in tryptic soy broth (TSB) for 48 h at 37°C. MRSA re-growth represents therapy failure, and the prevention rate was defined as the percentage of cages without growth in each treatment group.
Figure 6. Prophylactic effect of 5-FU against MRSA ATCC 43300 in a murine tissue cage infection model. Read-outs were obtained two days after infection with 965 CFU/cage and treatment with saline, saline with 1 μM AI-2, 50 mg/kg daptomycin (DAP), 10 mg/kg 5-FU with or without 50 mg/kg DAP, 40 mg/kg 5-FU with or without 50 mg/kg DAP or 40 mg/kg 5-FU with 50 mg/kg DAP and 5.2844 mg/kg DPD, as indicated below the panels. (A) Effect on planktonic MRSA 43300 two days post-infection. (B) Effect on adherent MRSA after explantation and sonication. (C) Prevention rate. Values in (A) and (B) are median ± IQR and those in (C) are % ([…]; **P < 0.001; ****P < 0.0001; ns, not significant). TEXT PRINTED IN THE PICTURE: (C) DAP: prevention rate (%): 18 | (C) DAP + 5-FU (10): prevention rate (%): 75 | (C) DAP + 5-FU (40): prevention rate (%): 94 | (C) DAP + 5-FU (40) + DPD: prevention rate (%): 12.5 DOUBTS OF THE COPYIST ABOUT THIS PICTURE: Panel C, DAP, prevention rate: 18 or 16 (small print) / Panel C, DAP + 5-FU (10), prevention rate: 75 or 76 (small print) / Panel C: which treatment belongs to each bar was read from the small +/- grid under the plot, so the column alignment is not fully certain

MRSA ATCC 43300 [2] = test system: MRSA ATCC 43300; parameters: method as in PMID 21576433; conditions: implant-associated MRSA infection model; cited from earlier work
SE 1457 wild type = assay: AI-2 activity of SE 1457 wild type; assay type: cell-based, Staphylococcus epidermidis; conditions: 1 μM DPD with increasing 5-FU concentrations, 3 h
Protocol: (§1) To confirm that the phenotype could be restored, 1 μM synthetic (S)-4,5-dihydroxy-2,3-pentanedione (DPD) (Biosynth Carbosynth, Staad, Switzerland) was used. After 3 h under static conditions at 37°C, the supernatant was analysed for AI-2 activity with V. harveyi (MM32).
Supplementary Figure 4 | Bioactivity of 5-FU against Staphylococcus epidermidis (SE). a) Quorum-sensing-associated AI-2 activity of SE 1457 grown for 3 h in the presence of different 5-FU concentrations (note log scale). b) Reversing effect of 1 µM DPD on the AI-2-reducing action of 5-FU (dashed line indicates AI-2 baseline of SE 1457 without 5-FU). Values represent 3 biological replicates expressed as mean ± SD (*, p < 0.05; **, p < 0.01).

MRSA ATCC 43300 [3] = assay: AI-2 activity of MRSA ATCC 43300; assay type: cell-based, Staphylococcus aureus; conditions: 1 μM DPD
Protocol: as §1
Figure 4. Bioactivity of 5-FU against MRSA ATCC 43300. (A) Quorum sensing-associated AI-2 activity of MRSA 43300 grown for 3 h with different 5-FU concentrations. (B) Effect of different 5-FU concentrations on MRSA 43300 growth. (C) Interference with biofilm formation. (D) Effect on adherent MRSA 43300. Data points represent three biological replicates expressed as mean ± SD (**P < 0.01; ***P < 0.001; ****P < 0.0001).
Figure 5. Phenotype restoration with synthetic AI-2 supplementation. AI-2 activity of MRSA ATCC 43300 was evaluated with and without 1 μM DPD in the presence of different 5-FU concentrations. The dashed line indicates the baseline level of AI-2 of MRSA ATCC 43300 in the absence of 5-FU. Values represent 3 biological replicates expressed as mean ± SD (**P < 0.01; ****P < 0.0001).

[4] = test system: AI-2 production by HEK-293AI2 cells expressing MTAN and LuxS; parameters: method as in PMID 29739943; conditions: earlier proof-of-concept study; cited from earlier work

| SMILES | Effect on biofilm / adherent MRSA (MRSA ATCC 43300 [1]) | Effect on planktonic MRSA infection (MRSA ATCC 43300 [1]) | Clearance rate of daptomycin used alone (MRSA ATCC 43300 [2]) [%] | AI-2 activity of SE 1457 with DPD added to 5-FU (SE 1457 wild type) | Baseline AI-2 activity of MRSA 43300 (MRSA ATCC 43300 [3]) | AI-2 activity of 5-FU-challenged MRSA supplemented with DPD (MRSA ATCC 43300 [3]; MRSA ATCC 43300) | Effect of DPD on prevention rate (MRSA ATCC 43300 [1]; DPD co-administered with 5-FU and DAP) | AI-2 production in HEK cells [4] |
| --- | --- | --- | --- | --- | --- | --- | --- | --- |
| CCCCCCCCCC(=O)N[C@@H](Cc1c[nH]c2ccccc12)C(=O)N[C@H](CC(N)=O)C(=O)N[C@@H](CC(=O)O)C(=O)N[C@@H]1C(=O)NCC(=O)N[C@@H](CCCN)C(=O)N[C@@H](CC(=O)O)C(=O)N[C@H](C)C(=O)N[C@@H](CC(=O)O)C(=O)NCC(=O)N[C@H](CO)C(=O)N[C@@H]([C@H](C)CC(=O)O)C(=O)N[C@@H](CC(=O)c2ccccc2N)C(=O)O[C@@H]1C [DAP, daptomycin] | neither 5-FU nor DAP alone was sufficient to contain the infection | failed to clear planktonic MRSA infections | < 20 |  |  |  |  |  |
| CC(=O)C(=O)[C@@H](O)CO [DPD, (S)-4,5-dihydroxy-2,3-pentanedione] | reversed the 5-FU-dependent inhibition | reversed the 5-FU-dependent inhibition |  | AI-2 activity returned almost to baseline | little influence | counteracted the effect of 5-FU | decreased the prevention rate to the level observed for DAP monotherapy |  |
| Nc1ncnc2c([C@@H]3N[C@H](CO)[C@@H](O)[C@H]3O)c[nH]c12 [immunicillin-A] |  |  |  |  |  |  |  | significantly decreased |
